These results are taken from US20240199576A1, “NOVEL CYCLOPENTA[C]PYRROL NEGATIVE ALLOSTERIC MODULATORS OF NR2B” (Novartis AG, priority 2021, published 2024).

Structures are written as SMILES. A value given as a limit tells only on which side of the number the result lay.

One assay deals with hERG (Homo sapiens (Human), UniProt Q12809). The assay can be described thus: hERG Qpatch assay. The format is cell-based. The conditions noted are these: hERG expressing CHO-K1 cells, automated patch clamp, tail current. The method, then: This assay was performed by the method described in Skepper et al., J. Med. Chem. 2020, 63, 7773-7816:
hERG expressing cell lines were produced in-house at Novartis using CHO-K1 T-Rex inducible plasmid system (Invitrogen) as described previously (Cao et al., Assay Drug Dev. Technol. 2010, 8, 766-780). Cell lines were maintained in Ham's F12 nutrient mixture containing 10% FBS, blasticidin ([…]; InvivoGen), hygromycin B ([…]; InvivoGen), Zeocin ([…], Invitrogen), and neomycin ([…], Invitrogen) using SelecT automated cell culture system (TAP Biosystems, Cambridge, U.K.). hERG and hCav1.2 channels expression was induced with tetracycline (0.25-1 μg/mL, Invitrogen) at least 24 h prior to the experiment.
hERG currents were recorded using the Qpatch automated patch clamp systems (Sophion Bioscience Inc., North Brunswick, NJ) in the whole (single) cell configuration. hERG expressing CHO-K1 cells were harvested with Detachin (Genlantis) and stored in the modified serum-free SFM-2 media (Life Technologies) at room temperature. The extracellular solution contained (in mM) NaCl (145), KCl (4), MgCl2 (1), CaCl2 (2), and HEPES (10), pH 7.4, with NaOH. The intracellular solution contained KCl (135), MgCl2 (1.75), CaCl2 (5.4), EGTA (10), K2-ATP (4), and HEPES (10), pH 7.2, with KOH. After whole cell configuration was achieved, the cell was held at −90 mV, and a 0.1 s pulse to −50 mV was delivered to measure the leaking current, which was subtracted from the tail current online. Then the cell was depolarized to +20 mV for 4 s (prepulse), followed by a 4 s test pulse to −50 mV to reveal the hERG tail current. To monitor changes in the current amplitude, this voltage protocol was repeatedly applied every 20 s. Test compounds were first diluted in DMSO for six dose-response experiments and then dissolved in the extracellular solution using Freedom EVO liquid handling robotic system (Tecan, Männedorf, Switzerland). The final DMSO concentration in samples was 0.3% v/v. Amitriptyline (Sigma) was tested as a positive control. Data were analyzed using in-house developed MatLab-based program (MathWorks, Natick, MA).

Another assay concerns the target NR2B (Rattus norvegicus (Rat), UniProt Q00960). Put plainly: NR2B rat cortical neuron calcium influx assay. The class given is cell-based. The conditions noted are these: rat cortical neurons, glutamate and glycine stimulated calcium influx, 2 hours compound incubation. From the text:
Example 1: NR2B Rat Cortical Neuron Calcium Influx Assay Protocol
Embryonic day 18 timed pregnant Sprague Dawley rats were euthanized according to Institutional Animal Care and Use Committee (IACUC) protocol. After cutting medially through the skin and exposing the uterus and embryos, fetuses were removed and placed in cold Hibernate medium. Each embryo's brain was extracted and cerebral cortices were isolated by removing the midbrain and meninges. The dissected cortices were then dissociated into the neurons using papain dissociation system (Worthington Biochemical Corporation) according the manufacturer's protocol.
Dissociated neurons were counted and plated into 384-well poly-D-lysine coated plates (Corning® BioCoat™) at a density of 20,000 cells/well in 30 μL of Neurobasal/B27 complete medium. Neurons were cultured at 37° C. for 2 days. On the assay day, medium was removed and cells were incubated with 20 μL/well of calcium dye (Calcium 6 Assay Kit, Molecular Devices) suspended in HBSS with 1.8 mM Ca^2+ (Ca-HBSS) according to the manufacturer's instruction.
Compounds of interest from 10 mM stock were serially diluted into 3× of desired concentrations in 1.8 mM Ca-HBSS, and 10 μL were added to the wells. Compound and the neurons were incubated at 37° C. for 2 hours in the dark.
On FDSS7000EX (Hamamatsu Photonics), a fluorescence measuring instrument, 10 μL of 4× ligand solution containing glutamate and glycine made in 1.8 mM Ca^2+-HBSS were added to each well. The fluorescent signals were collected before and after the addition of ligands for a total of 2 minutes. The data were converted to a ratio of the peak fluorescence to the fluorescence at the beginning of the measurement.
Each data point was measured in duplicates. Dose response curves were used to identify IC50 and maximal inhibition values. IC50 represents the concentration in μM of compound at which there is a half-maximal compound effect. Maximal inhibition of a compound is expressed as a percent of the highest inhibition of activity over a no compound control.

Chain of NR2B (Q00960 27-1482, other chains not shown): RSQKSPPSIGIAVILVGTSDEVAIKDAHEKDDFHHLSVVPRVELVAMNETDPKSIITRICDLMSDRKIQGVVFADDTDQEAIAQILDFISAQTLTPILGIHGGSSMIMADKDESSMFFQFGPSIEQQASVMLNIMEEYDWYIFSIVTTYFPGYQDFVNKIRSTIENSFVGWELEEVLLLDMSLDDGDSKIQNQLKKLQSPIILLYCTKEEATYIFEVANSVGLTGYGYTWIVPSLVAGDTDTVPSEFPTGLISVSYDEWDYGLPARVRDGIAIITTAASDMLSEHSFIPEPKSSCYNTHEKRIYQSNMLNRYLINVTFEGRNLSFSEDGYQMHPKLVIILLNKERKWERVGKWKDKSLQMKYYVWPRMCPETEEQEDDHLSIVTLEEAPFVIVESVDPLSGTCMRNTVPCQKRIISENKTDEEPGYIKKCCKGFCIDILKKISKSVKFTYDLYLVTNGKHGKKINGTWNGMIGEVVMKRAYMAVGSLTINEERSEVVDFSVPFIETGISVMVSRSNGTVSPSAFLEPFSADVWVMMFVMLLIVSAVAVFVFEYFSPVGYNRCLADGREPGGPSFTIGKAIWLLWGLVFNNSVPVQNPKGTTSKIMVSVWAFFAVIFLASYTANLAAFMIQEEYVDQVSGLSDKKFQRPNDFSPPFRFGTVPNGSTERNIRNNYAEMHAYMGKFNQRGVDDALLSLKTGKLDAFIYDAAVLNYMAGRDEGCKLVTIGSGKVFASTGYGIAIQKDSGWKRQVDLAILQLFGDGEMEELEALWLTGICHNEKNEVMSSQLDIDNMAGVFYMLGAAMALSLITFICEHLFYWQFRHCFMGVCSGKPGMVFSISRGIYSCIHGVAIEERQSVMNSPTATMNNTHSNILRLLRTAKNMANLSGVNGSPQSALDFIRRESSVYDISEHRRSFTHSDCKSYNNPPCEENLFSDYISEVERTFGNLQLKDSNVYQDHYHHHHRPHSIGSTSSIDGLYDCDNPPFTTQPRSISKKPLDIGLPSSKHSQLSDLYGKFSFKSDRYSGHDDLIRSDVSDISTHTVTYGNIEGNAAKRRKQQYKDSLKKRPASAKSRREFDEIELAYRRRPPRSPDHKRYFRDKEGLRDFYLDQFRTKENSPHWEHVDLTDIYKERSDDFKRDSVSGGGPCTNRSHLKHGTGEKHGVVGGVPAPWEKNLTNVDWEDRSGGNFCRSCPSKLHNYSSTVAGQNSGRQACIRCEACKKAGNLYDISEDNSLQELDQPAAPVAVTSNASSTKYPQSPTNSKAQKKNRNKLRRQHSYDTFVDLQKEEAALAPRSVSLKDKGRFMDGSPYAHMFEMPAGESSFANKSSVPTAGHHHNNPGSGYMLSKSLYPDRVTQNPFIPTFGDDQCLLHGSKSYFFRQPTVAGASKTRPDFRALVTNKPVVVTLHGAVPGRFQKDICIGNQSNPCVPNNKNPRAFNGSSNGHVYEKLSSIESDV
Chain of hERG (Q12809 whole entry): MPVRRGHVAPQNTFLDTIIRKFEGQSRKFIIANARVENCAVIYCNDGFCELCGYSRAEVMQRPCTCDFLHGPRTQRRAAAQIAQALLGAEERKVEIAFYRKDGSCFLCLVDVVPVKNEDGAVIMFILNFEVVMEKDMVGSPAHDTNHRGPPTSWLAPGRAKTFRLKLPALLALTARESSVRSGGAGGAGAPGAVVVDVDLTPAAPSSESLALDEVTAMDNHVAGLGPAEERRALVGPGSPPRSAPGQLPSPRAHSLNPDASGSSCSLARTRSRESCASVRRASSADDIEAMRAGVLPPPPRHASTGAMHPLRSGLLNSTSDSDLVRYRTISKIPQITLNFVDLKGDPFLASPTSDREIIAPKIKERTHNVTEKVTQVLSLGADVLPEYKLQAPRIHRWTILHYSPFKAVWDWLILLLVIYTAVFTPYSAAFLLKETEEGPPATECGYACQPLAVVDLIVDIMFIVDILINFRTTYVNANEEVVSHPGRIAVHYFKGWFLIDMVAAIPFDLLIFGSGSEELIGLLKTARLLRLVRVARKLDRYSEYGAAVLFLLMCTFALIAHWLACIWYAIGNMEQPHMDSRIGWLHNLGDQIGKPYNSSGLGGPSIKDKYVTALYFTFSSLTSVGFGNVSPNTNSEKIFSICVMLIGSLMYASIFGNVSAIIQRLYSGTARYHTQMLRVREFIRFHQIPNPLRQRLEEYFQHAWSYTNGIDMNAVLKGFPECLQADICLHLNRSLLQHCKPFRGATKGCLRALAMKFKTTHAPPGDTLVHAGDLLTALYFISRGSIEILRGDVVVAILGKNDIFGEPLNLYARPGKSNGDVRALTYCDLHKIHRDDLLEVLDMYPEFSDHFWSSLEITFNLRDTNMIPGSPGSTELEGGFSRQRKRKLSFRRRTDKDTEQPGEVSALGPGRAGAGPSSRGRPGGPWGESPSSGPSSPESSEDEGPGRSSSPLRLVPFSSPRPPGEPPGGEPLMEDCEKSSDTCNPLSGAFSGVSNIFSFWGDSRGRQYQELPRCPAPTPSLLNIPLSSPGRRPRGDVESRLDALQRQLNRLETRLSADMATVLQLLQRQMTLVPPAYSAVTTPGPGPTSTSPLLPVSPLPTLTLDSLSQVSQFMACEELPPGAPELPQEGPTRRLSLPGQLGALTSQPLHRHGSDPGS

On to `Oc1c(F)cc(C(O)CN2C[C@H]3C[C@H](Oc4ccccc4)C[C@H]3C2)cc1F` (mixture of isomers) [Mixture of two isomers at benzylic position, reference compound], for which 2800 nM corresponded to half-maximal inhibition at hERG (IC50).

With `Oc1ccc(C(O)CN2C[C@H]3C[C@H](Oc4ccccc4F)C[C@@]3(O)C2)nc1` (single isomer, unassigned) [Example 1B], the results for the IC50 at hERG and at NR2B were 14000 nM and 0.74 nM, respectively.

On to `Oc1ccc(C(O)CN2C[C@H]3C[C@H](Oc4ccccc4F)C[C@@]3(O)C2)nc1` (single isomer, unassigned) [Example 1C], for which the IC50 against hERG turned out to be 22000 nM; on NR2B, 1.1 nM.

Take `Oc1ccc(C(O)CN2C[C@H]3C[C@H](Oc4ccccc4F)[C@H](O)[C@@]3(O)C2)nc1` (single isomer, unassigned) [Example 2A]: the concentration for half-maximal inhibition (IC50) at NR2B worked out at 11 nM.

`Oc1ccc(C(O)CN2C[C@H]3C[C@H](Oc4ccccc4F)[C@H](O)[C@@]3(O)C2)nc1` (single isomer, unassigned) [Example 2B]: the IC50 at NR2B was 2.2 nM.

As to `Oc1ccc(C(O)CN2C[C@@H]3C[C@@H](Oc4ccccc4F)[C@@H](O)[C@]3(O)C2)nc1` (single isomer, unassigned) [Example 2C], the half-maximal inhibitory concentration (IC50) at NR2B stood at 770 nM.

`Oc1ccc(C(O)CN2C[C@@H]3C[C@@H](Oc4ccccc4F)[C@@H](O)[C@]3(O)C2)nc1` (single isomer, unassigned) [Example 2D]: the IC50 on NR2B was determined as 950 nM.

Consider `Oc1ccc(C(O)CN2C[C@H]3C[C@H](Oc4ccccc4)[C@H](O)[C@@]3(O)C2)nc1Cl` (single isomer, unassigned) [Example 4C], for which the concentration for half-maximal inhibition (IC50) at NR2B worked out at 31 nM.

Consider `Oc1ccc(C(O)CN2C[C@H]3C[C@H](Oc4ccccc4)[C@H](O)[C@@]3(O)C2)nc1Cl` (single isomer, unassigned) [Example 4D], for which the IC50 on NR2B amounted to 35 nM.

Turning to `Oc1c(F)cc(C(O)CN2C[C@@H]3C[C@@H](Oc4ccccc4)[C@@H](O)[C@]3(O)C2)cc1F` (single isomer, unassigned) [Example 5C], the IC50 on NR2B is 900 nM.

Turning to `Oc1c(F)cc(C(O)CN2C[C@@H]3C[C@@H](Oc4ccccc4)[C@@H](O)[C@]3(O)C2)cc1F` (single isomer, unassigned) [Example 5D], at NR2B, the concentration for half-maximal inhibition (IC50) came to 3700 nM.

With `Oc1ccc(C(O)CN2C[C@H]3C[C@H](Oc4ccccc4)C[C@@]3(O)C2)nc1` (single isomer, unassigned) [Example 7C], the IC50 at hERG amounted to 28000 nM; on NR2B it was 2.4 nM.

On to `Oc1ccc(C(O)CN2C[C@H]3C[C@H](Oc4ccccc4)C[C@@]3(O)C2)nc1` (single isomer, unassigned) [Example 7D], for which the 50% inhibitory concentration (IC50) on hERG worked out at 19000 nM; at NR2B it was 3.2 nM.

Molecule `Oc1ccc(C(O)CN2C[C@H]3C[C@H](Oc4ccccc4)C[C@H]3C2)nc1` (single isomer, unassigned) [Table 3 from WO 2016/049165 (isomer 1), reference compound] showed a 50% inhibitory concentration (IC50) against hERG of 2000 nM.

`Oc1ccc(C(O)CN2C[C@H]3C[C@H](Oc4ccccc4)C[C@H]3C2)nc1` (single isomer, unassigned) [Table 3 of WO 2016/049165 (isomer 2), reference compound] showed an IC50 on hERG of 2700 nM.

Consider `Oc1ccc(C(O)CN2C[C@@H]3C[C@@H](Oc4ccccc4)[C@@H](O)[C@]3(O)C2)nc1F` (some centres unmarked) [Example 3A], for which the IC50 on NR2B is over 10000 nM.

In the case of `Oc1ccc(C(O)CN2C[C@H]3C[C@H](Oc4ccccc4)[C@H](O)[C@@]3(O)C2)nc1F` (some centres unmarked) [Example 3D], on NR2B, the half-maximal inhibitory concentration (IC50) came out at 24 nM.

With `Oc1ccc(C(O)CN2C[C@@H]3C[C@@H](Oc4ccccc4)[C@@H](O)[C@]3(O)C2)nc1Cl` (some centres unmarked) [Example 4A], at NR2B, the IC50 was over 10000 nM.

`Oc1c(F)cc(C(O)CN2C[C@H]3C[C@H](Oc4ccccc4)[C@H](O)[C@@]3(O)C2)cc1F` (some centres unmarked) [Example 5B]: the half-inhibitory concentration (IC50) at NR2B came to 28 nM.

On to `Oc1c(F)cc([C@@H](O)CN2C[C@H]3C[C@H](Oc4ccccc4)C[C@@]3(O)C2)cc1F` [Example 10C], for which the 50% inhibitory concentration (IC50) turned out to be 22000 nM at hERG and 14 nM at NR2B.

Turning to `Oc1c(F)cc([C@H](O)CN2C[C@H]3C[C@H](Oc4ccccc4)C[C@@]3(O)C2)cc1F` [Example 10D, (3aS,5S,6aR)-2-((S)-2-(3,5-difluoro-4-hydroxyphenyl)-2-hydroxyethyl)-5-phenoxyhexahydrocyclopenta[c]pyrrol-3a(1H)-ol], the IC50 on hERG is 25000 nM; at NR2B it was 6 nM.

With `Oc1ccc(CCN2C[C@H]3C[C@H](Oc4ccc(F)cc4F)C[C@@]3(O)C2)nc1` [Example 19], the IC50 at NR2B was determined as 18 nM.

With `Oc1ccc(CCN2C[C@H]3C[C@H](Oc4cccnc4F)C[C@@]3(O)C2)nc1` [Example 20], at NR2B, the IC50 is 820 nM.
